In patent US20240109877A1, “PYRIMIDINES FOR DEGRADING BRUTON'S TYROSINE KINASE” (AbbVie Inc., priority 2022, published 2024):

Target: Human BTK enzyme, wild-type (Homo sapiens (Human), UniProt Q06187)
Experiment: BTK Screening: Btk kinase activity, electrophoretic mobility shift assay (MSA)
Format: biochemical
Settings: 0.5 nM BTK enzyme, 50 μM ATP, 15 minutes pre-incubation, 3 hours at 25° C.
Protocol: Btk kinase activity was measured in vitro using an electrophoretic mobility shift assay (MSA). The ability of Btk to phosphorylate a fluorescent peptide substrate (FAM-GEEPLYWSFPAKKK-NH2) was measured. The kinase reactions were assembled in a total volume of 25 μL per well in 384 well plates. The following was added to each well: compound buffer (or control); enzyme buffer; and substrate buffer, as further described below.
Specifically the following was added: (1) compound buffer or control: 5μL of 5× compound buffer [(5× compound buffer comprised of: 1× Master Buffer, X μM test compound in 5% dimethyl sulfoxide; (2× Master Buffer comprised of 200 mM HEPES, pH7.5, 0.2% BSA, and 0.02% Triton X-100)]; and (2) enzyme buffer: 10 μL of 2.5× enzyme buffer (1× Master Buffer, 12.5 mM MgCl2, 2.5 mM DTT, 25 μM sodium orthovanadate, 25 μM beta-glycerophosphate, and 1.25 nM BTK enzyme). Human BTK enzyme Nanosyn-293HEK, wild-type, available from Nanosyn, Santa Clara, CA). Enzyme and compound were pre-incubated for 15 minutes. Additionally, the following was added: (3) substrate buffer: 10 μL of 2.5× substrate buffer (1× Master Buffer, […], and 2.5 μM of the peptide substrate FAM). Each plate was incubated at 25° C. for 3 hours. The reaction was terminated by adding to each well: 45 μL of 1.55× stop buffer (1× Master Buffer and 31 mM EDTA). The final reaction mixture was as follows: 100 mM HEPES, pH7.5; 0.1% BSA; 0.01% Triton X-100; 1 mM DTT; 5 mM MgCl2; 10 μM sodium orthovanadate; 10 μM beta-glycerophosphate; 50 μM ATP; 1% dimethyl sulfoxide (from compound); 1μM fluorescent peptide substrate and 0.5 nM BTK- enzyme. The terminated reactions were analyzed using a 12 channel LABCHIP® 3000 microfluidic detection instrument (available from Caliper Life Sciences, Waltham, MA). […] As substrate and product peptides were separated, two peaks of fluorescence were observed. Change in the relative fluorescence intensity of the substrate and product peaks was the parameter measured, reflecting enzyme activity. In the presence of an active compound, the ratio between product and substrate was altered. The signal of the product decreased, while the signal of the substrate increased. Capillary electrophoregrams (RDA acquisition files) were analyzed using HTS Well Analyzer software (available from Caliper Life Sciences, Waltham, MA).
Activity in each sample was determined as the product to sum ratio (PSR): P/(S+P), where P was the peak height of the product peptide and S was the peak height of the substrate peptide. For each compound, enzyme activity was measured at various concentrations (12 concentrations of compound spaced by 3× dilution intervals). Negative control samples (0% inhibition in the absence of an active compound) and positive control samples (100% inhibition, in the presence of 20 mM EDTA) were assembled in replicates of four and were used to calculate % inhibition values for each active compound at each concentration. Percent inhibition (Pinh) was determined using following equation: Pinh=(PSR0%−PSRinh)/(PSR0%−PSR100%)*100, where PSRinh was the product sum ratio in the presence of inhibitor, PSR0% was the average product sum ratio in the absence of active compound and PSR100% was the average product sum ratio in 100%-inhibition control samples.
The IC50 values of active compounds were determined by 4 parameter sigmoidal dose response model fitting of the inhibition curves (Pinh versus inhibitor concentration) using XLfit® 4 software (IDBS, Boston, MA). The IC50 values are reported in Table 2 in the BTK IC50 (nM) column.

Human BTK enzyme, wild-type, sequence (Q06187 whole entry): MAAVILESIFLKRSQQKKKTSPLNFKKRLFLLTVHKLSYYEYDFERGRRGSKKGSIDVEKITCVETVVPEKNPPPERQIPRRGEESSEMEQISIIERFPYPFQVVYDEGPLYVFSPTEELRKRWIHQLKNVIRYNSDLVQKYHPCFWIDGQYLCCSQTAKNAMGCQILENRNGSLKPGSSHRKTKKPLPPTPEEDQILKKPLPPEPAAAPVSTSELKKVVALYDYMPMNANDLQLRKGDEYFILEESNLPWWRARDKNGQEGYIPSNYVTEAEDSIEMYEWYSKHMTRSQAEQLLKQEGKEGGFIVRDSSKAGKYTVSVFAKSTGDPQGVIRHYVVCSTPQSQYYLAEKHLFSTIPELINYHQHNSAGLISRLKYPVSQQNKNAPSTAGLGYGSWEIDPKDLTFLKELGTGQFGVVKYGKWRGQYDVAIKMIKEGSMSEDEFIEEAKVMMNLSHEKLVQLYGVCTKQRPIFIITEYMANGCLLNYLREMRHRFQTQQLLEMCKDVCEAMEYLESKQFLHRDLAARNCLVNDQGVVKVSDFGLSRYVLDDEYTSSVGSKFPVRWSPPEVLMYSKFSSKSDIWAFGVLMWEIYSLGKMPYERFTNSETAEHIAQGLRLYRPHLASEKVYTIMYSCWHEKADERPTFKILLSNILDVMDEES

| SMILES | IC50 [nM] |
| --- | --- |
| Cc1cc(-c2cc(Nc3ccc(N4CCN(CCc5ccc(N6CCC(=O)NC6=O)cc5)C[C@H]4C)cn3)ncn2)ccc1[C@@H](C)NC(=O)c1nc(C(C)(C)C)no1 [Example 2, 3-tert-butyl-N-[(1R)-1-{4-[6-({5-[(2R)-4-{2-[4-(2,4-dioxo-1,3-diazinan-1-yl)phenyl]ethyl}-2-methylpiperazin-1-yl]pyridin-2-yl}amino)pyrimidin-4-yl]-2-methylphenyl}ethyl]-1,2,4-oxadiazole-5-carboxamide] | 0.128 |
| Cc1cc(-c2cc(Nc3ccc(N4CCN(CCc5ccc(N6CCC(=O)NC6=O)cc5)CC4)cn3)ncn2)ccc1[C@@H](C)NC(=O)c1nc(C(C)(C)C)no1 [Example 3, 3-tert-butyl-N-{(1R)-1-[4-(6-{[5-(4-{2-[4-(2,4-dioxo-1,3-diazinan-1-yl)phenyl]ethyl}piperazin-1-yl)pyridin-2-yl]amino}pyrimidin-4-yl)-2-methylphenyl]ethyl}-1,2,4-oxadiazole-5-carboxamide] | 0.0339 |
| Cc1cc(-c2cc(Nc3ccc(N4CCN(CCc5ccc(N6CCC(=O)NC6=O)c(F)c5)C[C@@H]4C)cn3)ncn2)ccc1[C@@H](C)NC(=O)c1nc(C(C)(C)C)no1 [Example 4, 3-tert-butyl-N-[(1R)-1-{4-[6-({5-[(2S)-4-{2-[4-(2,4-dioxo-1,3-diazinan-1-yl)-3-fluorophenyl]ethyl}-2-methylpiperazin-1-yl]pyridin-2-yl}amino)pyrimidin-4-yl]-2-methylphenyl}ethyl]-1,2,4-oxadiazole-5-carboxamide] | 0.141 |
| Cc1cc(-c2cc(Nc3ccc(N4CCN(CCc5ccc(N6CCC(=O)NC6=O)c(F)c5)C[C@H]4C)cn3)ncn2)ccc1[C@@H](C)NC(=O)c1nc(C(C)(C)C)no1 [Example 5, 3-tert-butyl-N-[(1R)-1-{4-[6-({5-[(2R)-4-{2-[4-(2,4-dioxo-1,3-diazinan-1-yl)-3-fluorophenyl]ethyl}-2-methylpiperazin-1-yl]pyridin-2-yl}amino)pyrimidin-4-yl]-2-methylphenyl}ethyl]-1,2,4-oxadiazole-5-carboxamide] | 0.113 |
| CC[C@H]1CN(CCc2ccc(N3CCC(=O)NC3=O)cc2)CCN1c1ccc(Nc2cc(-c3ccc([C@@H](C)NC(=O)c4nc(C(C)(C)C)no4)c(C)c3)ncn2)nc1 [Example 6, 3-tert-butyl-N-[(1R)-1-{4-[6-({5-[(2S)-4-{2-[4-(2,4-dioxo-1,3-diazinan-1-yl)phenyl]ethyl}-2-ethylpiperazin-1-yl]pyridin-2-yl}amino)pyrimidin-4-yl]-2-methylphenyl}ethyl]-1,2,4-oxadiazole-5-carboxamide] | 0.0403 |
| CC[C@H]1CN(CCc2ccc(N3CCC(=O)NC3=O)c(F)c2)CCN1c1ccc(Nc2cc(-c3ccc([C@@H](C)NC(=O)c4nc(C(C)(C)C)no4)c(C)c3)ncn2)nc1 [Example 7, 3-tert-butyl-N-[(1R)-1-{4-[6-({5-[(2S)-4-{2-[4-(2,4-dioxo-1,3-diazinan-1-yl)-3-fluorophenyl]ethyl}-2-ethylpiperazin-1-yl]pyridin-2-yl}amino)pyrimidin-4-yl]-2-methylphenyl}ethyl]-1,2,4-oxadiazole-5-carboxamide] | 0.0979 |
| CC[C@@H]1CN(CCc2ccc(N3CCC(=O)NC3=O)cc2)CCN1c1ccc(Nc2cc(-c3ccc([C@@H](C)NC(=O)c4nc(C(C)(C)C)no4)c(C)c3)ncn2)nc1 [Example 8, 3-tert-butyl-N-[(1R)-1-{4-[6-({5-[(2R)-4-{2-[4-(2,4-dioxo-1,3-diazinan-1-yl)phenyl]ethyl}-2-ethylpiperazin-1-yl]pyridin-2-yl}amino)pyrimidin-4-yl]-2-methylphenyl}ethyl]-1,2,4-oxadiazole-5-carboxamide] | 0.0804 |
| Cc1cc(-c2cc(Nc3ccc(N4CCN(CCc5ccc(N6CCC(=O)NC6=O)cc5)CC4(C)C)cn3)ncn2)ccc1[C@@H](C)NC(=O)c1nc(C(C)(C)C)no1 [Example 9, 3-tert-butyl-N-{(1R)-1-[4-(6-{[5-(4-{2-[4-(2,4-dioxo-1,3-diazinan-1-yl)phenyl]ethyl}-2,2-dimethylpiperazin-1-yl)pyridin-2-yl]amino}pyrimidin-4-yl)-2-methylphenyl]ethyl}-1,2,4-oxadiazole-5-carboxamide] | 0.0988 |
| Cc1cc(-c2cc(Nc3ccc(N4CCN(CCc5ccc(N6CCC(=O)NC6=O)cc5)CC4)cn3)ncn2)c(F)cc1[C@@H](C)NC(=O)c1nc(C(C)(C)C)no1 [Example 12, 3-tert-butyl-N-{(1R)-1-[4-(6-{[5-(4-{2-[4-(2,4-dioxo-1,3-diazinan-1-yl)phenyl]ethyl}piperazin-1-yl)pyridin-2-yl]amino}pyrimidin-4-yl)-5-fluoro-2-methylphenyl]ethyl}-1,2,4-oxadiazole-5-carboxamide] | 0.0363 |
| Cc1cc(-c2cc(Nc3ccc(N4CCN(CCc5ccc(N6CCC(=O)NC6=O)cc5)C[C@@H]4C(C)C)cn3)ncn2)ccc1[C@@H](C)NC(=O)c1nc(C(C)(C)C)no1 [Example 13, 3-tert-butyl-N-[(1R)-1-{4-[6-({5-[(2S)-4-{2-[4-(2,4-dioxo-1,3-diazinan-1-yl)phenyl]ethyl}-2-(propan-2-yl)piperazin-1-yl]pyridin-2-yl}amino)pyrimidin-4-yl]-2-methylphenyl}ethyl]-1,2,4-oxadiazole-5-carboxamide] | 0.14 |
| C[C@@H](NC(=O)c1nc(C(C)(C)C)no1)c1ccc(-c2cc(Nc3ccc(N4CCN(CCc5ccc(N6CCC(=O)NC6=O)cc5)C[C@@H]4C)cn3)ncn2)cc1Cl [Example 14, 3-tert-butyl-N-[(1R)-1-{2-chloro-4-[6-({5-[(2S)-4-{2-[4-(2,4-dioxo-1,3-diazinan-1-yl)phenyl]ethyl}-2-methylpiperazin-1-yl]pyridin-2-yl}amino)pyrimidin-4-yl]phenyl}ethyl]-1,2,4-oxadiazole-5-carboxamide] | 0.053 |
| Cc1cc(-c2cc(Nc3ccc(N4CCN(CCc5ccc(N6CCC(=O)NC6=O)cc5)C[C@@H]4C)cc3)ncn2)ccc1[C@@H](C)NC(=O)c1nc(C(C)(C)C)no1 [Example 18] | 0.496 |
| Cc1cc(-c2cc(Nc3ccc(CCN4CCN(c5ccc(N6CCC(=O)NC6=O)cc5)CC4)cn3)ncn2)ccc1[C@@H](C)NC(=O)c1nc(C(C)(C)C)no1 [Example 19] | 0.1 |
